Measurements from the NIST ThermoML archive (doi:10.1021/acs.jced.8b00132).
Several values for one entry are separate records, joined by “and”; a condition that tells them apart may be missing. Equal entries are not always repeated. ± gives the expanded uncertainty stated by the source.

Conditions: transient hot wire

O=C(C(F)(F)C(F)(F)F)C(F)(C(F)(F)F)C(F)(F)F [dodecafluoro-2-methylpentan-3-one]
Conditions	thermal conductivity
417.43 K, 35735 kPa, Liquid	0.06006 ± 0.0012 W/m/K
417.44 K, 35746 kPa, Liquid	0.06008 ± 0.0012 W/m/K
417.45 K, 995 kPa, Gas	0.022 ± 0.0014 W/m/K
417.46 K, 24856 kPa, Liquid	0.05553 ± 0.0011 W/m/K
417.46 K, 24868 kPa, Liquid	0.05553 ± 0.0011 W/m/K
417.48 K, 3782 kPa, Liquid	0.04235 ± 0.00089 W/m/K
417.49 K, 3785 kPa, Liquid	0.04236 ± 0.00089 W/m/K
417.5 K, 788 kPa, Gas	0.02105 ± 0.0013 W/m/K and 0.02104 ± 0.0013 W/m/K
417.52 K, 10593 kPa, Liquid	0.04792 ± 0.001 W/m/K
417.52 K, 10594 kPa, Liquid	0.04785 ± 0.001 W/m/K
417.53 K, 2204 kPa, Liquid	0.04067 ± 0.00085 W/m/K
417.53 K, 2206 kPa, Liquid	0.04059 ± 0.00085 W/m/K
417.56 K, 372 kPa, Gas	0.02094 ± 0.0013 W/m/K
417.59 K, 16285 kPa, Liquid	0.05128 ± 0.0011 W/m/K
417.59 K, 35671 kPa, Liquid	0.06014 ± 0.0012 W/m/K
417.59 K, 35701 kPa, Liquid	0.06019 ± 0.0012 W/m/K
417.6 K, 591 kPa, Gas	0.02077 ± 0.0013 W/m/K
417.6 K, 1024 kPa, Gas	0.0225 ± 0.00075 W/m/K
417.6 K, 16284 kPa, Liquid	0.05126 ± 0.0011 W/m/K
417.61 K, 594 kPa, Gas	0.02078 ± 0.0013 W/m/K
417.61 K, 6424 kPa, Liquid	0.04484 ± 0.00094 W/m/K
417.62 K, 6421 kPa, Liquid	0.0448 ± 0.00094 W/m/K
417.65 K, 994 kPa, Gas	0.02218 ± 0.0014 W/m/K
417.66 K, 995 kPa, Gas	0.02218 ± 0.0014 W/m/K
417.68 K, 785 kPa, Gas	0.02107 ± 0.0013 W/m/K
417.7 K, 788 kPa, Gas	0.02117 ± 0.0013 W/m/K
417.7 K, 3782 kPa, Liquid	0.04218 ± 0.00088 W/m/K and 0.04238 ± 0.00089 W/m/K
417.71 K, 10585 kPa, Liquid	0.04785 ± 0.001 W/m/K
417.73 K, 10592 kPa, Liquid	0.04786 ± 0.001 W/m/K
417.76 K, 371 kPa, Gas	0.02099 ± 0.0013 W/m/K
417.76 K, 372 kPa, Gas	0.0209 ± 0.0013 W/m/K
417.82 K, 589 kPa, Gas	0.02086 ± 0.0013 W/m/K
417.82 K, 6421 kPa, Liquid	0.0448 ± 0.00094 W/m/K
417.84 K, 994 kPa, Gas	0.02265 ± 0.0014 W/m/K
417.84 K, 6421 kPa, Liquid	0.04481 ± 0.00094 W/m/K
417.85 K, 994 kPa, Gas	0.02241 ± 0.0014 W/m/K
417.88 K, 785 kPa, Gas	0.02124 ± 0.0013 W/m/K
417.93 K, 3782 kPa, Liquid	0.04241 ± 0.00089 W/m/K
417.93 K, 3784 kPa, Liquid	0.04244 ± 0.00089 W/m/K
417.95 K, 369 kPa, Gas	0.02101 ± 0.0013 W/m/K
417.95 K, 370 kPa, Gas	0.02093 ± 0.0013 W/m/K
418.05 K, 588 kPa, Gas	0.02096 ± 0.0013 W/m/K
418.08 K, 784 kPa, Gas	0.02089 ± 0.0013 W/m/K
418.16 K, 367 kPa, Gas	0.02097 ± 0.0013 W/m/K
418.16 K, 369 kPa, Gas	0.02096 ± 0.0013 W/m/K
418.29 K, 587 kPa, Gas	0.02094 ± 0.0013 W/m/K
418.3 K, 587 kPa, Gas	0.02092 ± 0.0013 W/m/K
418.46 K, 367 kPa, Gas	0.02103 ± 0.0013 W/m/K
418.47 K, 366 kPa, Gas	0.02102 ± 0.0013 W/m/K
432.13 K, 1545 kPa, Gas	0.02726 ± 0.0017 W/m/K
432.18 K, 1546 kPa, Gas	0.02748 ± 0.0017 W/m/K
432.2 K, 1545 kPa, Gas	0.02732 ± 0.0017 W/m/K
432.24 K, 1546 kPa, Gas	0.02788 ± 0.0018 W/m/K
432.25 K, 1546 kPa, Gas	0.02765 ± 0.0018 W/m/K
432.26 K, 1546 kPa, Gas	0.0279 ± 0.0018 W/m/K
432.38 K, 2634 kPa, Liquid	0.03887 ± 0.00082 W/m/K
432.38 K, 2635 kPa, Liquid	0.0388 ± 0.00082 W/m/K
432.42 K, 1424 kPa, Gas	0.02465 ± 0.0015 W/m/K
432.43 K, 1423 kPa, Gas	0.02466 ± 0.0015 W/m/K
432.46 K, 1706 kPa, Liquid	0.03696 ± 0.00079 W/m/K
432.46 K, 1978 kPa, Liquid	0.03766 ± 0.0008 W/m/K
432.47 K, 1706 kPa, Liquid	0.03707 ± 0.00079 W/m/K
432.47 K, 1710 kPa, Liquid	0.03705 ± 0.00079 W/m/K
432.47 K, 1979 kPa, Liquid	0.03775 ± 0.0008 W/m/K
432.52 K, 1423 kPa, Gas	0.0248 ± 0.0015 W/m/K
432.52 K, 2633 kPa, Liquid	0.03885 ± 0.00082 W/m/K
432.53 K, 1423 kPa, Gas	0.02469 ± 0.0015 W/m/K
432.53 K, 2633 kPa, Liquid	0.03887 ± 0.00082 W/m/K
432.54 K, 1420 kPa, Gas	0.02444 ± 0.0015 W/m/K
432.55 K, 1420 kPa, Gas	0.0244 ± 0.0015 W/m/K
432.56 K, 1978 kPa, Liquid	0.03769 ± 0.00079 W/m/K
432.57 K, 1705 kPa, Liquid	0.03737 ± 0.00079 W/m/K and 0.03712 ± 0.00079 W/m/K
432.57 K, 1979 kPa, Liquid	0.0379 ± 0.0008 W/m/K
432.62 K, 1709 kPa, Liquid	0.03738 ± 0.00079 W/m/K
432.63 K, 1422 kPa, Gas	0.02518 ± 0.0016 W/m/K
432.63 K, 1709 kPa, Liquid	0.0377 ± 0.0008 W/m/K
432.65 K, 1419 kPa, Gas	0.02476 ± 0.0015 W/m/K and 0.02477 ± 0.0015 W/m/K
432.67 K, 1705 kPa, Liquid	0.03805 ± 0.00081 W/m/K
432.68 K, 1705 kPa, Liquid	0.0373 ± 0.00079 W/m/K
432.68 K, 1977 kPa, Liquid	0.03782 ± 0.0008 W/m/K
432.68 K, 1978 kPa, Liquid	0.03794 ± 0.0008 W/m/K
432.68 K, 2631 kPa, Liquid	0.03893 ± 0.00082 W/m/K
432.68 K, 2632 kPa, Liquid	0.03891 ± 0.00082 W/m/K
432.69 K, 3940 kPa, Liquid	0.04069 ± 0.00085 W/m/K and 0.04067 ± 0.00085 W/m/K
